pEC50, pKi: −log10 of the molar value.
Key:
TYK2 = TYK2 (Homo sapiens (Human), UniProt P29597); assay: Tyk2 radioactive kinase assay; type: biochemical; conditions: ATP 10 μM
Procedure, shortened: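 Recombinant human TYK2 (Invitrogen) was mixed with 20 μM peptide substrate in a buffer of 20 mM Hepes pH 7.5, 10 mM MgCl2, 1 mM EGTA, 0.02% Brij35, 0.02 mg/mL BSA, 0.1 mM […], 2 mM DTT and 1% DMSO, and compounds in DMSO were added. Adding ^33P-ATP (10 μM ATP) started the reaction, which ran 120 min at room temperature. Mixtures were then spotted onto P81 ion-exchange paper, washed thoroughly in 0.75% phosphoric acid, and counted for radioactivity.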

JAK2 = JAK2 (Homo sapiens (Human), UniProt O60674); assay: JAK2 radioactive kinase assay; type: biochemical; conditions: ATP 10 μM
Procedure, shortened: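 Radiometric assay in Hepes pH 7.5, MgCl2, EGTA, Brij35, BSA, DTT, 1% DMSO, with 10 μM [33P]ATP, 120 min at room temp; P81 paper capture and counting. […]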

[1] = system: Tyk2-pSTAT4 (IL-12 induced pSTAT4); assay: IL-12 induced pSTAT4 in human PBMC; type: cell-based; conditions: Homo sapiens, PBMC, 0.5 h, 1.7 ng/mL IL-12, 30 minutes
Method: (§1) Human PBMC are isolated from buffy coat and are stored frozen for assays as needed. Cells for assay are thawed and resuspended in complete media containing serum, then cells are diluted to 1.67 E6 cells/ml so that 120 ul per well is 200,000 cells. 15 ul of compound or DMSO is added to the well at the desired concentrations and incubated at 1 hr at 37 C. 15 ul of stimulus (final concentration of 1.7 ng/mL IL-12) is added for 30 minutes prior to pSTAT4 and total STAT4 analysis using cell lysates prepared and analyzed by MSD reagents as per manufacturer protocol. The final DMSO concentration of compound in the assay is 0.1%.

[2] = system: JAK2-pSTAT5 (GM-CSF induced pSTAT5); assay: GM-CSF induced pSTAT5 in human PBMC; type: cell-based; conditions: 20 min, 5 ng/mL GM-CSF
Method: as §1
Cells are prepared for analysis as in the above procedure and 15 ul of GM-CSF (final concentration 5 ng/mL) is added for 20 minutes prior to pSTAT5 and total STAT5 analysis using cell lysates prepared and analyzed by MSD reagents as per manufacturer protocol. The final DMSO concentration of compound in the assay is 0.1%.

TYK2, sequence (P29597 whole entry): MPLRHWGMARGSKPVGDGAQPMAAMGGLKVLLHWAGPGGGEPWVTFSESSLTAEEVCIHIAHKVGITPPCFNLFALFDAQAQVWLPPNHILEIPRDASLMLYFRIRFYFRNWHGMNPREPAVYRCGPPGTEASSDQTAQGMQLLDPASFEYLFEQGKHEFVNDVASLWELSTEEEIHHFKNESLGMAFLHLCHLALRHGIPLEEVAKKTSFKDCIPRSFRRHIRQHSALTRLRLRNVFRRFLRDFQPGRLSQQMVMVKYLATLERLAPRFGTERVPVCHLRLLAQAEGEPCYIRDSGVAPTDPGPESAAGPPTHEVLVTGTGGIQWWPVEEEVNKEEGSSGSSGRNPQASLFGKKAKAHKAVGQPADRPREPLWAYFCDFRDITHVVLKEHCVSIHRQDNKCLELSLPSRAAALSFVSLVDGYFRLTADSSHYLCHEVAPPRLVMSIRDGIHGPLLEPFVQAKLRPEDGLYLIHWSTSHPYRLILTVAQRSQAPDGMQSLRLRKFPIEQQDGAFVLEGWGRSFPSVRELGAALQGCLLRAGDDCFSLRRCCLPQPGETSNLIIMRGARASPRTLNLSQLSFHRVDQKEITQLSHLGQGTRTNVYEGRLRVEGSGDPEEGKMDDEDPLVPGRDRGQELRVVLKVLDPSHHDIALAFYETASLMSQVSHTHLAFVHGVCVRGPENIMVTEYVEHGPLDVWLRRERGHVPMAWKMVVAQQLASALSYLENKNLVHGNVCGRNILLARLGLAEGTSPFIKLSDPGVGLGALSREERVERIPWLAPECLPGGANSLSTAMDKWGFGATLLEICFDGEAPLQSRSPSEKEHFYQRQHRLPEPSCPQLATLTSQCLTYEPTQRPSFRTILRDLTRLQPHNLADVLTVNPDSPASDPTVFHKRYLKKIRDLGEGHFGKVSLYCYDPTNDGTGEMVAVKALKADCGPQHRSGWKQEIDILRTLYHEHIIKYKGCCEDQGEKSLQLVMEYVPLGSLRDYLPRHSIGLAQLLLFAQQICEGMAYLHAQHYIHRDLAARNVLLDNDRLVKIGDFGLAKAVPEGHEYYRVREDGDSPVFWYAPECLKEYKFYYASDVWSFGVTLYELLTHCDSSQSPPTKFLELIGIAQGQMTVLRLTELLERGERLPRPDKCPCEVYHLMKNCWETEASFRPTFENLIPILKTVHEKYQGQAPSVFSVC
JAK2, sequence (O60674 whole entry): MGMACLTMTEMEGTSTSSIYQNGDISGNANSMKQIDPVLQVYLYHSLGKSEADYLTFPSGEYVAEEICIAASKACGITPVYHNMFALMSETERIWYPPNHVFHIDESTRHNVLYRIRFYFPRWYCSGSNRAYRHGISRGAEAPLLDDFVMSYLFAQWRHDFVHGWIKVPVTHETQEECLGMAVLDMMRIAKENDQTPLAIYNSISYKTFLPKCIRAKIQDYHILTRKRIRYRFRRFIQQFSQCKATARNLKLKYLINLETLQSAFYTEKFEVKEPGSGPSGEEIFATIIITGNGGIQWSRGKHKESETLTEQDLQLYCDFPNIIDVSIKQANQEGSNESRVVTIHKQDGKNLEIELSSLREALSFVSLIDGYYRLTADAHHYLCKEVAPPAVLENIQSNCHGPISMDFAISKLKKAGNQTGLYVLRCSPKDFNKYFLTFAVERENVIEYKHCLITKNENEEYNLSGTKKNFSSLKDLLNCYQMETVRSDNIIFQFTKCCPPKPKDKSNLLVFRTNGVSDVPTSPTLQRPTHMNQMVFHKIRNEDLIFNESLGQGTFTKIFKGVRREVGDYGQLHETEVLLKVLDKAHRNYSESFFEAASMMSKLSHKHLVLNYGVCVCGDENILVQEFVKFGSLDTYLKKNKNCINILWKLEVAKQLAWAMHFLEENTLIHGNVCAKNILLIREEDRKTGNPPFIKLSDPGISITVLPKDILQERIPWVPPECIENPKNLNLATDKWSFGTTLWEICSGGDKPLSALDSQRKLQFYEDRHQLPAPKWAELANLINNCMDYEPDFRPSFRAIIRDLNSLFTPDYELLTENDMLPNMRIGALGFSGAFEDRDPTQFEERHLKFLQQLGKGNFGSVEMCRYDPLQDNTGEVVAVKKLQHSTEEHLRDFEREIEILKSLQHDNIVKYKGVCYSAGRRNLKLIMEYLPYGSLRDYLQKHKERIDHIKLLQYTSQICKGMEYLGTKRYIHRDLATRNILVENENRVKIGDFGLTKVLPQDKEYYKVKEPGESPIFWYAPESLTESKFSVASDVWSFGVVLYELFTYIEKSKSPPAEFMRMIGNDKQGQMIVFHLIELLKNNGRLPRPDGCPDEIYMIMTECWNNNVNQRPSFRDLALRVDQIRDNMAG

SMILES | pKi (TYK2) | pKi (JAK2) | pEC50 [1] | pEC50 ([2]; Homo sapiens, PBMC) | pEC50 [2]
CO[C@H]1CN(c2ccn(-c3cc(-c4c(F)cccc4C#N)nc4c3C(=O)NC4)n2)CC[C@H]1O [I-181, 3-fluoro-2-(4-(3-((3S,4R)-4-hydroxy-3-methoxypiperidin-1-yl)-1H-pyrazol-1-yl)-5-oxo-6,7-dihydro-5H-pyrrolo[3,4-b]pyridin-2-yl)benzonitrile] | 8.00 to 10.00 | 7.00 to 8.00 | 5.70 to 7.00 | 5.70 to 7.00 | 
CO[C@H]1CN(c2ccn(-c3cc(-c4c(F)cccc4C#N)nc4c3C(=O)NC4)n2)CC[C@@H]1O [I-202, 3-fluoro-2-(4-(3-((3S,4S)-4-hydroxy-3-methoxypiperidin-1-yl)-1H-pyrazol-1-yl)-5-oxo-6,7-dihydro-5H-pyrrolo[3,4-b]pyridin-2-yl)benzonitrile] | 8.00 to 10.00 | 7.00 to 8.00 | 7.00 to 7.52 | 5.70 to 7.00 | 
N#Cc1cccc(F)c1-c1cc(-n2ccc(N3CC[C@@]4(CCNC4=O)C3)n2)c2c(n1)CNC2=O [I-166, (S)-3-fluoro-2-(5-oxo-4-(3-(6-oxo-2,7-diazaspiro[4.4]nonan-2-yl)-1H-pyrazol-1-yl)-6,7-dihydro-5H-pyrrolo[3,4-b]pyridin-2-yl)benzonitrile] | 10.00 to 11.05 | 8.00 to 10.00 | 5.70 to 7.00 | 5.70 to 7.00 | 
CCNC(=O)[C@H]1CCCN(c2ccn(-c3cc(-c4c(F)cccc4C#N)nc4c3C(=O)NC4)n2)C1 [I-171, (S)-1-(1-(2-(2-cyano-6-fluorophenyl)-5-oxo-6,7-dihydro-5H-pyrrolo[3,4-b]pyridin-4-yl)-1H-pyrazol-3-yl)-N-ethylpiperidine-3-carboxamide] | 8.00 to 10.00 | 7.00 to 8.00 | 5.70 to 7.00 | < 5.70 | 
[2H]C1([2H])N(c2ccn(-c3cc(-c4c(F)cccc4C#N)nc4c3C(=O)NC4)n2)C([2H])([2H])[C@@]([2H])(O)C1([2H])[2H] [I-209, (S)-3-fluoro-2-(4-(3-(3-hydroxypyrrolidin-1-yl-2,2,3,4,4,5,5-d7)-1H-pyrazol-1-yl)-5-oxo-6,7-dihydro-5H-pyrrolo[3,4-b]pyridin-2-yl)benzonitrile] | 8.00 to 10.00 | 7.00 to 8.00 | 5.70 to 7.00 | < 5.70 | 
C[C@]1(O)CCCN(c2ccn(-c3cc(-c4c(F)cccc4C#N)nc4c3C(=O)NC4)n2)C1 [I-72, (S)-3-fluoro-2-(4-(3-(3-hydroxy-3-methylpiperidin-1-yl)-1H-pyrazol-1-yl)-5-oxo-6,7-dihydro-5H-pyrrolo[3,4-b]pyridin-2-yl)benzonitrile] | 8.00 to 10.00 | 8.00 to 10.00 | 5.70 to 7.00 | < 5.70 | 
N#Cc1cccc(F)c1-c1cc(-n2ccc(N3CCC(O)C3)n2)c2c(n1)CNC2=O (stereo not drawn) [I-76, 3-fluoro-2-(4-(3-(3-hydroxypyrrolidin-1-yl)-1H-pyrazol-1-yl)-5-oxo-6,7-dihydro-5H-pyrrolo[3,4-b]pyridin-2-yl)benzonitrile] | 10.00 to 11.05 | 8.00 to 10.00 | 7.00 to 7.52 | 5.70 to 7.00 | 
CCNC(=O)C1CCCN(c2ccn(-c3cc(-c4c(F)cccc4C#N)nc4c3C(=O)NC4)n2)C1 (stereo not drawn) [I-159, 1-(1-(2-(2-cyano-6-fluorophenyl)-5-oxo-6,7-dihydro-5H-pyrrolo[3,4-b]pyridin-4-yl)-1H-pyrazol-3-yl)-N-ethylpiperidine-3-carboxamide] | 8.00 to 10.00 | 7.00 to 8.00 | 5.70 to 7.00 | < 5.70 | 
CC(C)c1ccn(-c2cc(-c3c(F)cccc3C#N)nc3c2C(=O)NC3)n1 [I-151, 3-fluoro-2-(4-(3-isopropyl-1H-pyrazol-1-yl)-5-oxo-6,7-dihydro-5H-pyrrolo[3,4-b]pyridin-2-yl)benzonitrile] | 8.00 to 10.00 | 6.00 to 7.00 | 5.70 to 7.00 | < 5.70 | 
CC(=O)NC1CCCN(c2ccn(-c3cc(-c4c(F)cccc4C#N)nc4c3C(=O)NC4)n2)C1 (stereo not drawn) [I-123, N-(1-(1-(2-(2-cyano-6-fluorophenyl)-5-oxo-6,7-dihydro-5H-pyrrolo[3,4-b]pyridin-4-yl)-1H-pyrazol-3-yl)piperidin-3-yl)acetamide] | 8.00 to 10.00 | 8.00 to 10.00 | 5.70 to 7.00 | < 5.70 | 
N#Cc1cccc(F)c1-c1cc(-n2cc(F)c(N3CC[C@@H](O)C3)n2)c2c(n1)CNC2=O [I-189, (R)-3-fluoro-2-(4-(4-fluoro-3-(3-hydroxypyrrolidin-1-yl)-1H-pyrazol-1-yl)-5-oxo-6,7-dihydro-5H-pyrrolo[3,4-b]pyridin-2-yl)benzonitrile] | 8.00 to 10.00 | 7.00 to 8.00 | 5.70 to 7.00 | < 5.70 | 
N#Cc1cccc(F)c1-c1cc(-c2ccn([C@@H]3COC[C@@H]3O)n2)c2c(n1)CNC2=O [I-234, 3-fluoro-2-(4-(1-((3R,4R)-4-hydroxytetrahydrofuran-3-yl)-1H-pyrazol-3-yl)-5-oxo-6,7-dihydro-5H-pyrrolo[3,4-b]pyridin-2-yl)benzonitrile] | 7.00 to 8.00 | 6.00 to 7.00 | 5.70 to 7.00 | < 5.70 | 
CO[C@H]1CN(c2ccn(-c3cc(-c4c(F)cccc4C#N)nc4c3C(=O)NC4)n2)C[C@H]1O [I-153, 3-fluoro-2-(4-(3-((3R,4S)-3-hydroxy-4-methoxypyrrolidin-1-yl)-1H-pyrazol-1-yl)-5-oxo-6,7-dihydro-5H-pyrrolo[3,4-b]pyridin-2-yl)benzonitrile] | 8.00 to 10.00 |  | 7.00 to 7.52 | < 5.70 | 
O=C1NCc2nc(-c3c(F)cccc3F)cc(-n3ccc(N4CCOCC4CO)n3)c21 (stereo not drawn) [I-90, 2-(2,6-difluorophenyl)-4-(3-(3-(hydroxymethyl)morpholino)-1H-pyrazol-1-yl)-6,7-dihydro-5H-pyrrolo[3,4-b]pyridin-5-one] | 8.00 to 10.00 | 6.00 to 7.00 |  | < 5.70 | 
CN1CC2(CCN(c3ccn(-c4cc(-c5c(F)cccc5C#N)nc5c4C(=O)NC5)n3)CC2)C1 [I-110, 3-fluoro-2-(4-(3-(2-methyl-2,7-diazaspiro[3.5]nonan-7-yl)-1H-pyrazol-1-yl)-5-oxo-6,7-dihydro-5H-pyrrolo[3,4-b]pyridin-2-yl)benzonitrile] | ≤ 6.00 | ≤ 6.00 |  | < 5.70 | 
N#Cc1cccc(F)c1-c1cc(-n2ccc(N3CCC4(C3)OCC(O)CO4)n2)c2c(n1)CNC2=O (stereo not drawn) [I-192, 3-fluoro-2-(4-(3-(8-hydroxy-6,10-dioxa-2-azaspiro[4.5]decan-2-yl)-1H-pyrazol-1-yl)-5-oxo-6,7-dihydro-5H-pyrrolo[3,4-b]pyridin-2-yl)benzonitrile] | 8.00 to 10.00 | 8.00 to 10.00 |  | < 5.70 | 
CC1CCC(O)CN1c1ccn(-c2cc(-c3c(F)cccc3C#N)nc3c2C(=O)NC3)n1 (stereo not drawn) [I-96, 3-fluoro-2-(4-(3-(5-hydroxy-2-methylpiperidin-1-yl)-1H-pyrazol-1-yl)-5-oxo-6,7-dihydro-5H-pyrrolo[3,4-b]pyridin-2-yl)benzonitrile] | 8.00 to 10.00 | 7.00 to 8.00 |  | < 5.70 | 
C[C@@]1(O)CN(c2ccn(-c3cc(-c4c(F)cccc4C#N)nc4c3C(=O)NC4)n2)C[C@@](C)(O)C1 [I-145, 2-(4-(3-((3S,5S)-3,5-dihydroxy-3,5-dimethylpiperidin-1-yl)-1H-pyrazol-1-yl)-5-oxo-6,7-dihydro-5H-pyrrolo[3,4-b]pyridin-2-yl)-3-fluorobenzonitrile] | 8.00 to 10.00 | 7.00 to 8.00 |  | < 5.70 | 
N#Cc1cccc(F)c1-c1cc(-n2ccc(N3CCC[C@H](N)C3)n2)c2c(n1)CNC2=O [I-74, (S)-2-(4-(3-(3-aminopiperidin-1-yl)-1H-pyrazol-1-yl)-5-oxo-6,7-dihydro-5H-pyrrolo[3,4-b]pyridin-2-yl)-3-fluorobenzonitrile] | 8.00 to 10.00 | 7.00 to 8.00 |  | < 5.70 | 
N#Cc1cccc(F)c1-c1cc(-n2ccc(N3CCOC[C@H]3CO)n2)c2c(n1)CNC2=O [I-164, (R)-3-fluoro-2-(4-(3-(3-(hydroxymethyl)morpholino)-1H-pyrazol-1-yl)-5-oxo-6,7-dihydro-5H-pyrrolo[3,4-b]pyridin-2-yl)benzonitrile] | 8.00 to 10.00 | 8.00 to 10.00 |  | < 5.70 | 
CCNC(=O)Cc1ccn(-c2cc(-c3c(F)cccc3F)nc3c2C(=O)NC3)n1 [I-2, 2-(1-(2-(2,6-difluorophenyl)-5-oxo-6,7-dihydro-5H-pyrrolo[3,4-b]pyridin-4-yl)-1H-pyrazol-3-yl)-N-ethylacetamide] | 7.00 to 8.00 | ≤ 6.00 |  |  | < 5.70
N#Cc1cccc(F)c1-c1cc(-n2ccc(N3C[C@@H](O)[C@@H](O)C3)n2)c2c(n1)CNC2=O [I-109, 2-(4-(3-((3S,4R)-3,4-dihydroxypyrrolidin-1-yl)-1H-pyrazol-1-yl)-5-oxo-6,7-dihydro-5H-pyrrolo[3,4-b]pyridin-2-yl)-3-fluorobenzonitrile] | 8.00 to 10.00 | 8.00 to 10.00 |  | < 5.70 | 

From patent publication US10781204B2, “TYK2 inhibitors and uses thereof” (Nimbus Lakshmi, Inc., priority 2015, dated 2020)
